# Source: patent US9371363B2, “Peptides and their use” (Novabiotics Limited, priority 2007, dated 2016)
# Read-outs that look alike come from different tables or passages of the source. Where no end group is shown, it is not given here.
# Assays:
# Assay type in all cases: cell-based
# [1] = tested on: E. coli
# Method: (§1) Broth Dilution Antibacterial Susceptibility Testing
# (§2) The sensitivity of relevant bacterial strains to the peptides (was determined using Clinical Laboratory Standard Institute (CLSI; formerly NCCLS) Approved Standards. Bacterial susceptibility was tested using “Methods for Dilution Antimicrobial Susceptibility Tests for Bacteria That Grow […]; Approved Standard—Seventh Edition M7-A7”
# [2] = tested on: S. aureus
# Method: as §1, §2
# [3] = tested on: Ps. aeruginosa; conditions: Ps. aeruginosa
# Method: as §1, §2
# [4] = tested on: P. acnes
# Method: as §1, §2
# [5] = tested on: Str. pyogenes
# Method: as §1, §2
# [6] = S. aureus, values marked * in mg/ml
# [7] = P. acnes, values marked * in mg/ml
Compound,"Minimum Inhibitory Concentration, antimicrobial activity, S. aureus [2] [mM]","Minimum Inhibitory Concentration, antimicrobial activity, Ps. aeruginosa ([3]; CLSI broth dilution) [mM]","Minimum Inhibitory Concentration, antimicrobial activity, P. acnes [4] [mM]",other results
"N=C(N)NCCC[C@H](NC(=O)[C@H](CCCNC(=N)N)NC(=O)[C@H](CCCNC(=N)N)NC(=O)[C@H](CCCNC(=N)N)NC(=O)[C@H](CCCNC(=N)N)NC(=O)[C@H](CCCNC(=N)N)NC(=O)[C@@H](N)CCCNC(=N)N)C(=O)O [NP105, RRRRRRR (SEQ ID NO: 23)]",>2,,,"Minimum Inhibitory Concentration, antimicrobial activity, E. coli [1]: >2 mM"
CC(=O)N[C@@H](CCCNC(=N)N)C(=O)N[C@@H](CCCNC(=N)N)C(=O)N[C@@H](CCCNC(=N)N)C(=O)N[C@@H](CCCNC(=N)N)C(=O)N[C@@H](CCCNC(=N)N)C(=O)N[C@@H](CCCNC(=N)N)C(=O)N[C@@H](CCCNC(=N)N)C(=O)N[C@@H](CCCNC(=N)N)C(=O)N[C@@H](CCCNC(=N)N)C(=O)N[C@@H](CCCNC(=N)N)C(=O)N[C@@H](CCCNC(=N)N)C(=O)N[C@@H](CCCNC(=N)N)C(=O)N[C@@H](CCCNC(=N)N)C(N)=O [NP338],,0.0625,0.005,
"N=C(N)NCCC[C@@H](N)C(=O)N[C@H](CCCNC(=N)N)C(=O)N[C@H](CCCNC(=N)N)C(=O)N[C@H](CCCNC(=N)N)C(=O)N[C@H](CCCNC(=N)N)C(=O)N[C@H](CCCNC(=N)N)C(=O)N[C@H](CCCNC(=N)N)C(=O)N[C@H](CCCNC(=N)N)C(=O)N[C@H](CCCNC(=N)N)C(=O)N[C@H](CCCNC(=N)N)C(=O)N[C@H](CCCNC(=N)N)C(=O)N[C@H](CCCNC(=N)N)C(=O)N[C@H](CCCNC(=N)N)C(=O)O [NP339, dRdRdRdRdRdRdRdRdRdRdRdRdR (SEQ ID NO: 31)]",0.25,0.0625,0.02,
"CC(=O)N[C@H](CCCNC(=N)N)C(=O)N[C@H](CCCNC(=N)N)C(=O)N[C@H](CCCNC(=N)N)C(=O)N[C@H](CCCNC(=N)N)C(=O)N[C@H](CCCNC(=N)N)C(=O)N[C@H](CCCNC(=N)N)C(=O)N[C@H](CCCNC(=N)N)C(=O)N[C@H](CCCNC(=N)N)C(=O)N[C@H](CCCNC(=N)N)C(=O)N[C@H](CCCNC(=N)N)C(=O)N[C@H](CCCNC(=N)N)C(=O)N[C@H](CCCNC(=N)N)C(=O)N[C@H](CCCNC(=N)N)C(N)=O [NP340, Ac-dRdRdRdRdRdRdRdRdRdRdRdRdR—NH2 (SEQ ID NO: 31)]",0.25,0.125,0.02,
"N=C(N)NCCC[C@H](NC(=O)[C@H](CCCNC(=N)N)NC(=O)[C@H](CCCNC(=N)N)NC(=O)[C@H](CCCNC(=N)N)NC(=O)[C@H](CCCNC(=N)N)NC(=O)[C@H](CCCNC(=N)N)NC(=O)[C@H](CCCNC(=N)N)NC(=O)[C@H](CCCNC(=N)N)NC(=O)[C@H](CCCNC(=N)N)NC(=O)[C@H](CCCNC(=N)N)NC(=O)[C@H](CCCNC(=N)N)NC(=O)[C@H](CCCNC(=N)N)NC(=O)[C@@H](N)CCCNC(=N)N)C(=O)O [NP351, RRRRRRRRRRRRR (SEQ ID NO: 14)]",,0.125,,
"(K)n, n = 103-205 [NP101]",,,,"Minimum Inhibitory Concentration, antimicrobial activity, Ps. aeruginosa ([3]; values marked * in mg/ml): 0.125* mg/ml; Minimum Inhibitory Concentration, antimicrobial activity, S. aureus [2, 6]: <0.0313* mg/ml; Minimum Inhibitory Concentration, antimicrobial activity, P. acnes [4, 7]: 0.1* mg/ml"
"(R)n, n = 28-86 [NP121]",,,,"Minimum Inhibitory Concentration, antimicrobial activity, Ps. aeruginosa ([3]; values marked * in mg/ml): 0.0625* mg/ml; Minimum Inhibitory Concentration, antimicrobial activity, S. aureus [2, 6]: 0.0313* mg/ml; Minimum Inhibitory Concentration, antimicrobial activity, P. acnes [4, 7]: 0.01* mg/ml"
"KKKKKKK [NP104, KKKKKKK (SEQ ID NO: 35)]",>2,,,"Minimum Inhibitory Concentration, antimicrobial activity, E. coli [1]: >2 mM; Minimum Inhibitory Concentration, antimicrobial activity, Str. pyogenes [5]: 1 mM"
